Assay results published in ChEMBL document CHEMBL3351259, “Semi-synthesis of biologically active nisin hybrids composed of the native lanthionine ABC-fragment and a cross-stapled synthetic DE-fragment” (2014).
In brackets after ≈: the same amount, converted by molar mass. Activity calls are given as the source filed them. The calls are words filed in the database; no cut-off is given here.

Experiments:
Bacillus subtilis = assay: Antimicrobial activity against Bacillus subtilis assessed as inhibition of bacterial growth after 24 hrs by broth micro-dilution assay; format: functional
[1] = Induction of membrane leakage in large unilamellar vesicles composed of 1,2-dioleoyl-sn-glycero-3-phosphocholine and 0.2% lipid II […] at 5 uM by carboxyfluorescein based fluorescence spectroscopy; format: functional
[2] = Binding affinity affinity to lipid II (unknown origin) by nisin competitive assay

MIC (Bacillus subtilis) [µM]	Activity [2]	SMILES	Activity [1]
167 (≈ 192 µg/mL)	–	C=C1NC(=O)[C@H]([C@@H](C)CC)NC(=O)[C@@H](NC(=O)/C(=C/C)NC(=O)[C@@H](N)[C@@H](C)CC)CSC[C@@H](C(=O)N[C@@H]2C(=O)N3CCC[C@H]3C(=O)NCC(=O)N[C@H](C(=O)N[C@@H](CCCCN)C(N)=O)CS[C@H]2C)NC(=O)[C@H](CC(C)C)NC1=O	inactive
–	Active	C=C1NC(=O)[C@H]([C@@H](C)CC)NC(=O)[C@@H](NC(=O)/C(=C/C)NC(=O)[C@@H](N)[C@@H](C)CC)CSC[C@@H](C(=O)N[C@@H]2C(=O)N3CCC[C@H]3C(=O)NCC(=O)N[C@H](C(=O)N[C@@H](CCCCN)C(=O)N[C@@H]3C(=O)NCC(=O)N[C@@H](C)C(=O)N[C@@H](CC(C)C)C(=O)N[C@@H](CCSC)C(=O)NCC(=O)N[C@H](C(=O)N[C@@H](CC(N)=O)C(=O)NCc4cn([C@@H](CCCCN)C(=O)N[C@@H]5C/C=C/C[C@@H]6NC(=O)[C@@H](C/C=C/C[C@@H](C(=O)OC)NC(=O)[C@H](CC(N)=O)NC6=O)NC(=O)[C@H](C)NC5=O)nn4)CS[C@H]3C)CS[C@H]2C)NC(=O)[C@H](CC(C)C)NC1=O	inactive
4.07 (≈ 11.4 µg/mL)	–	C=C1NC(=O)[C@H]([C@@H](C)CC)NC(=O)[C@@H](NC(=O)/C(=C/C)NC(=O)[C@@H](N)[C@@H](C)CC)CSC[C@@H](C(=O)N[C@@H]2C(=O)N3CCC[C@H]3C(=O)NCC(=O)N[C@H](C(=O)N[C@@H](CCCCN)C(=O)N[C@@H]3C(=O)NCC(=O)N[C@@H](C)C(=O)N[C@@H](CC(C)C)C(=O)N[C@@H](CCSC)C(=O)NCC(=O)N[C@H](C(=O)N[C@@H](CC(N)=O)C(=O)N[C@@H](CC(C)C)c4cn([C@@H](CCCCN)C(=O)N[C@@H]5C/C=C/C[C@@H]6NC(=O)[C@@H](C/C=C/C[C@@H](C(=O)N[C@@H](CCCCC)C(=O)NC)NC(=O)[C@H](CC(N)=O)NC6=O)NC(=O)[C@H](C)NC5=O)nn4)CS[C@H]3C)CS[C@H]2C)NC(=O)[C@H](CC(C)C)NC1=O	inactive
6.2 (≈ 11.7 µg/mL)	Active	C=C1NC(=O)[C@H]([C@@H](C)CC)NC(=O)[C@@H](NC(=O)/C(=C/C)NC(=O)[C@@H](N)[C@@H](C)CC)CSC[C@@H](C(=O)N[C@@H]2C(=O)N3CCC[C@H]3C(=O)NCC(=O)N[C@H](C(=O)N[C@@H](CCCCN)C(=O)N[C@@H]3C(=O)NCC(=O)N[C@@H](C)C(=O)N[C@@H](CC(C)C)C(=O)N[C@@H](CCSC)C(=O)NCC(=O)N[C@H](C(=O)N[C@@H](CC(N)=O)C(=O)O)CS[C@H]3C)CS[C@H]2C)NC(=O)[C@H](CC(C)C)NC1=O	inactive
